Reference: patent US12312332B2 (Merck Sharp & Dohme LLC., priority 2019, dated 2025)

Target: T1, human OX2R (Homo sapiens, UniProt O43614)
T1 construct: expressed in transfected cells; host or cells: Chinese hamster ovary (CHO) cells, kept under G418 selection
T1 sequence (O43614 1-444): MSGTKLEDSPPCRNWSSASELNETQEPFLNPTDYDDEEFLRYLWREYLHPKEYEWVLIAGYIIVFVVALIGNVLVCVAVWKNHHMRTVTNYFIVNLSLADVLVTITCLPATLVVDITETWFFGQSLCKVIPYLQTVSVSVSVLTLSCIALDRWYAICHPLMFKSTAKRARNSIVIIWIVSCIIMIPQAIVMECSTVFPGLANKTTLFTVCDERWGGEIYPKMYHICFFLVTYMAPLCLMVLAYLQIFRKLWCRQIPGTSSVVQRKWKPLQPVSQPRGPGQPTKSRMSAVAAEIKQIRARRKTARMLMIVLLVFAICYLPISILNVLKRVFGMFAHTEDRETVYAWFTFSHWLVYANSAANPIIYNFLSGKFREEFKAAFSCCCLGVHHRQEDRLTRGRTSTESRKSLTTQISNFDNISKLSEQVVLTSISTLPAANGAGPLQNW
Test: IPOne (IP-One) orexin receptor agonist assay in CHO cells expressing human OX2R
Format: cell-based
Settings: for EC50: CHO cells expressing human OX2R, IP-One detection, 2 hours incubation, four parameter logistic fit, read-out: OX2R Potency, EC50; for % max agonist effect (Emax): human OX2R, percentage of sample raw value/mean max effect (reference compound at 1 uM with 100% activity)

SMILES | EC50 | % max agonist effect (Emax)
COc1cccnc1N1CC[C@H](NS(C)(=O)=O)[C@@H]1CO[C@H]1CC[C@@H](c2ccccc2)CC1 [Example 141, N-((2R,3S)-1-(3-methoxypyridin-2-yl)-2-((((CIS)-4-phenylcyclohexyl)oxy)methyl)pyrrolidin-3-yl)methanesulfonamide] | 7.1 nM | 100.2%
CS(=O)(=O)N[C@H]1CCN(c2cc(C(F)F)cc(C(F)F)n2)[C@H]1CO[C@H]1CC[C@@H](c2ccccc2)CC1 [Example 142, N-((2R,3S)-1-(4,6-bis(difluoromethyl)pyridin-2-yl)-2-((((CIS)-4-phenylcyclohexyl)oxy)methyl)pyrrolidin-3-yl)methanesulfonamide] | > 10000 nM | 15.8%
CS(=O)(=O)N[C@H]1CCN(c2cc(C(F)F)ccn2)[C@H]1CO[C@H]1CC[C@@H](c2ccccc2)CC1 [Example 143, N-((2R,3S)-1-(4-(difluoromethyl)pyridin-2-yl)-2-((((CIS)-4-phenylcyclohexyl)oxy)methyl)pyrrolidin-3-yl)methanesulfonamide] | 1820 nM | 95.6%
Cc1ccnc(N2CC[C@H](NS(C)(=O)=O)[C@@H]2CO[C@H]2CC[C@@H](c3ccccc3)CC2)c1 [Example 144, N-((2R,3S)-1-(4-methylpyridin-2-yl)-2-((((CIS)-4-phenylcyclohexyl)oxy)methyl)pyrrolidin-3-yl)methanesulfonamide] | 794 nM | 98%
CS(=O)(=O)N[C@H]1CCN(c2ccc(C#N)nc2)[C@H]1CO[C@H]1CC[C@@H](c2ccccc2)CC1 [Example 145, N-((2R,3S)-1-(6-cyanopyridin-3-yl)-2-((((CIS)-4-phenylcyclohexyl)oxy)methyl)pyrrolidin-3-yl)methanesulfonamide] | 9.8 nM | 100.6%
COc1cccc(N2CC[C@H](NS(C)(=O)=O)[C@@H]2CO[C@H]2CC[C@@H](c3ccccc3)CC2)c1 [Example 146, N-((2R,3S)-1-(3-methoxyphenyl)-2-((((CIS)-4-phenylcyclohexyl)oxy)methyl)pyrrolidin-3-yl)methanesulfonamide] | 1830 nM | 84.6%
CS(=O)(=O)N[C@H]1CCN(c2cccc(C#N)c2)[C@H]1CO[C@H]1CC[C@@H](c2ccccc2)CC1 [Example 147, N-((2R,3S)-1-(3-cyanophenyl)-2-((((CIS)-4-phenylcyclohexyl)oxy)methyl)pyrrolidin-3-yl)methanesulfonamide] | > 10000 nM | 74.1%
CS(=O)(=O)N[C@H]1CCN(c2cccc(=O)[nH]2)[C@H]1CO[C@H]1CC[C@@H](c2ccccc2)CC1 [Example 148, N-((2R,3S)-1-(6-oxo-1,6-dihydropyridin-2-yl)-2-((((CIS)-4-phenylcyclohexyl)oxy)methyl)pyrrolidin-3-yl)methanesulfonamide] | 163 nM | 99.3%
CS(=O)(=O)N[C@H]1CCN(c2cncc(O)n2)[C@H]1CO[C@H]1CC[C@@H](c2ccccc2)CC1 [Example 149, N-((2R,3S)-1-(6-hydroxypyrazin-2-yl)-2-((((CIS)-4-phenylcyclohexyl)oxy)methyl)pyrrolidin-3-yl)methanesulfonamide] | 258 nM | 97.7%
CS(=O)(=O)N[C@H]1CCN(c2cc(O)ncn2)[C@H]1CO[C@H]1CC[C@@H](c2ccccc2)CC1 [Example 150, N-((2R,3S)-1-(6-hydroxypyrimidin-4-yl)-2-((((CIS)-4-phenylcyclohexyl)oxy)methyl)pyrrolidin-3-yl)methanesulfonamide] | 397 nM | 99.4%
CS(=O)(=O)N[C@H]1CCN(c2cc(O)c(F)cn2)[C@H]1CO[C@H]1CC[C@@H](c2ccccc2)CC1 [Example 151, N-((2R,3S)-1-(5-fluoro-4-hydroxypyridin-2-yl)-2-((((CIS)-4-phenylcyclohexyl)oxy)methyl)pyrrolidin-3-yl)methanesulfonamide] | 0.95 nM | 97.7%
COc1cccc(N2CC[C@H](NS(C)(=O)=O)[C@@H]2CO[C@H]2CC[C@@H](c3ccccc3)CC2)n1 [Example 152, N-((2R,3S)-1-(6-methoxypyridin-2-yl)-2-((((CIS)-4-phenylcyclohexyl)oxy)methyl)pyrrolidin-3-yl)methanesulfonamide] | 346 nM | 97.6%
CS(=O)(=O)N[C@H]1CCN(c2cc(O)ncc2F)[C@H]1CO[C@H]1CC[C@@H](c2ccccc2)CC1 [Example 153, N-((2R,3S)-1-(5-fluoro-2-hydroxypyridin-4-yl)-2-((((CIS)-4-phenylcyclohexyl)oxy)methyl)pyrrolidin-3-yl)methanesulfonamide] | 169 nM | 100.8%
CS(=O)(=O)N[C@H]1CCN(c2cc[nH]c(=O)c2)[C@H]1CO[C@H]1CC[C@@H](c2ccccc2)CC1 [Example 154, N-((2R,3S)-1-(2-oxo-1,2-dihydropyridin-4-yl)-2-((((CIS)-4-phenylcyclohexyl)oxy)methyl)pyrrolidin-3-yl)methanesulfonamide] | 52.3 nM | 100.5%
CS(=O)(=O)N[C@H]1CCN(c2cccc(O)c2)[C@H]1CO[C@H]1CC[C@@H](c2ccccc2)CC1 [Example 155, N-((2R,3S)-1-(3-hydroxyphenyl)-2-((((CIS)-4-phenylcyclohexyl)oxy)methyl)pyrrolidin-3-yl)methanesulfonamide] | 1860 nM | 94.4%
C[C@@H]1C[C@H](NS(=O)(=O)N(C)C)[C@H](CO[C@H]2CC[C@@H](c3cccc(F)c3)CC2)N1c1nccc(O)c1F [Example 156, N′-((2R,3S,5R)-1-(3-fluoro-4-hydroxypyridin-2-yl)-2-((((CIS)-4-(3-fluorophenyl)cyclohexyl)oxy)methyl)-5-methylpyrrolidin-3-yl)-N,N-dimethyl-sulfamide] | 0.45 nM | 100.8%
C[C@@H]1C[C@H](NS(=O)(=O)N(C)C)[C@H](CO[C@H]2CC[C@@H](c3cccc(F)c3)CC2)N1c1cc(O)ccn1 [Example 157, N′-((2R,3S,5R)-2-((((CIS)-4-(3-fluorophenyl)cyclohexyl)oxy)methyl)-1-(4-hydroxypyridin-2-yl)-5-methylpyrrolidin-3-yl)-N,N-dimethyl-sulfamide] | 0.25 nM | 100.2%
CS(=O)(=O)N[C@H]1CCCN(c2nccc(O)c2F)[C@H]1CO[C@H]1CC[C@@H](c2ccccc2)CC1 [Example 158, N-((2R,3S)-1-(3-fluoro-4-hydroxypyridin-2-yl)-2-((((CIS)-4-phenylcyclohexyl)oxy)methyl)piperidin-3-yl)methanesulfonamide] | 32.5 nM | 99.7%
CS(=O)(=O)NC1CCCN(c2cccnc2)C1CO[C@H]1CC[C@@H](c2ccccc2)CC1 (stereo partly drawn) [Example 159, N-(2-((((CIS)-4-phenylcyclohexyl)oxy)methyl)-1-(pyridin-3-yl)piperidin-3-yl)methanesulfamide] | 10.1 nM | 100.9%
CS(=O)(=O)N[C@H]1CCN(c2nccc(O)c2F)[C@H]1COC1CCC(c2ccccc2C(F)(F)F)CC1 (stereo partly drawn) [Example 160, N-((2R,3S)-1-(3-fluoro-4-hydroxypyridin-2-yl)-2-(((4-(2-(trifluoromethyl)phenyl)cyclohexyl)-oxy)methyl)pyrrolidin-3-yl)methanesulfonamide] | 6.1 nM | 101.7%
